Measured values as given in patent publication US20220249596A1, “PIC1 PEPTIDE COMPOSITIONS AND METHODS OF USE THEREOF FOR TREATMENT OF HYPOXIC ISCHEMIC ENCEPHALOPATHY” (REALTA HOLDINGS, LLC, priority 2019, published 2022).
No end group written: not given here.

Experiments:
Assay type in all cases: in vivo, rat
[1] = system: C5a; experiment: Systemic C5a level in plasma, fluorescent immunoassay; settings: 12 and 24 hours after initial insult, P<0.05; persisted to 48 hours
Method: (§1) The local and systemic effects of NT, HT and PIC1 treatment on the complement cascade were measured. CNS C1q levels and systemic C1q and C5a levels were measured using a fluorescent immunoassay.
(§2) Systemic C1q and C5a levels were measured as follows. 100 μl of 1:5 plasma in 1×PBS was added to the wells of a plate described above and incubated overnight at 4° C. The plates were washed 3 times with PBST and blocked with NDS or NGS for one hour. Samples were probed with either 1:50 goat anti-human C1q (Complement Technology) in NDS or 1:200 mouse anti-human C5a (Human Complement Component C5a DuoSet ELISA, R&D Systems, Inc., Minneapolis, Minn.) in NGS for one hour at RT. The wells were washed and 1:500 donkey anti-goat 488 (Life Technologies) in NDS or 1:500 goat anti-mouse AF 568 (Life Technologies) in NGS was added, and incubated for one hour at RT. The wells were washed and the plate read using a Synergy HT (BioTek). Systemic C3a levels in plasma (1:20 dilution) were measured using a standard ELISA, according to the manufacturer's instructions (Rat C3a ELISA Kit, TSZ ELISA, Waltham, Mass.).

[2] = Barnes maze, spatial learning and memory
Method: Spatial learning and memory were evaluated by measuring navigational ability of rats in a Barnes maze 8 weeks after initial injury. The Barnes maze tests memory across test sessions or trials and is more closely related to long-term memory. The test was performed using a Plexiglas maze 122 cm in diameter, with 20 equidistant holes (10.5 cm diameter) spaced every […], and centered 20 cm from the outer perimeter. An escape box (8 cm in depth) was placed under one of the holes. The position of the escape box was varied randomly from rat to rat, but kept constant for a given rat throughout testing. A floodlight was placed over the maze to serve as an aversive stimulus.
Prior to testing, the rats underwent habituation sessions once a day for 5 consecutive days. In each session, the rats were placed in a holding box in the middle of the maze and allowed to get acclimated for 60 seconds. The holding box was then lifted up from the rats so that the rats were allowed to explore. The test was over when either the rat found the burrowing hole and burrowed for 10 seconds or the 5-minute time limit was reached. […] On the 14th day after the habituation sessions, the rats were tested to evaluate memory retention. Latency to investigate any hole, escape latency, and number of errors during the test trials were analyzed by two-way ANOVA, followed by Bonferroni's post hoc comparison matrix. The same measurements recorded during the memory retention test were analyzed by Student's t-test. Significance was considered at p<0.05.

[3] = system: systemic complement activity; experiment: Complement hemolytic assay (sensitized human erythrocytes) with plasma of injected neonatal rats
Method: Complement activity was assayed in plasma after i.p. injection of PIC1 in term-equivalent neonatal rats. At post-natal day 7 (P7; day of birth=P1), the rat brain is histologically similar to that of a 32- to 34-week gestation human fetus or newborn infant, i.e., cerebral cortical neuronal layering is complete, the germinal matrix is involuting, and white matter as yet has undergone little myelination. Hypoxic-ischemic brain damage in the 7-day-old rat pups is induced with unilateral common carotid artery ligation followed by systemic hypoxia produced by the inhalation of 8% oxygen/balance nitrogen, at constant temperature (37° C.) (Vanucci et al. 2005. Dev Neurosci, Vol. 27, pages 81-86).
Timed pregnant Wistar rats (Hilltop Lab Animals Inc., Scottdale, Pa.) were purchased at embryonic day 19, housed individually, and allowed to deliver spontaneously. Pups were randomized on the day of birth to control for the litter effect (10/litter). At P10-12 (term-equivalent), pups were randomly assigned to 4 different treatment groups: no intervention (control), normothermia (NT), hypothermia-treated vehicle controls (HT), and treatment (PIC1). NT and HT animals were injected with the vehicle used to suspend PIC1. Experimental animals underwent unilateral carotid ligation followed by exposure to hypoxia (8% O2/balanced nitrogen, Vannucci model) for 45 minutes. Pups in the HT group were placed in open jars in a temperature controlled chamber set to 28-30° C. to maintain a target rectal temperature of 31-32° C. for 6 hours, while pups in the control, NT, and PIC1 groups were kept in a separate chamber at 37° C. Pups in the PIC1 group were injected with 2 doses of PIC1 (160 mg/kg, i.p.), with the first dose at the time of carotid ligation, and the second dose four hours later. After intervention, pups were placed back with the dam, and harvested at different time points.
Cobra-venom factor (CVF) was injected i.p. into one group of animals to deplete complement activity in vivo 24 hours prior to carotid ligation. On the day of surgery, a group of animals was injected with 160 mg/kg of PIC1 i.p. at the time of carotid ligation. The animals were harvested at 0.5-48 hours after injection, and plasma was collected by cardiac puncture.
Human AB erythrocytes were derived from healthy human volunteers. The erythrocytes were sensitized as described in Bonaparte et al. using rat anti-human glycophorin A IgG (LifeSpan Biosciences, Inc., Seattle, Wash.). Sensitized cells (5×10^7), serum, and GVBS^++ (Veronal-buffered saline, 0.1% gelatin, 0.15 mM CaCl2, and 1.0 mM MgCl) were combined in a total volume of 375 μl , and incubated for 1 hour at 37° C. in borosilicate glass tubes. […] The tubes were centrifuged and the absorbance of the supernatants was measured in a spectrophotometer at 412 nm.

[4] = system: C1q; experiment: Systemic C1q level in plasma, fluorescent immunoassay; settings: 8, 12 and 24 hours after initial insult, P<0.05
Method: as §1, §2

Substance: IALILEPICCQERAA-dPEG24 (cysteine pairing not given here) [PIC1]
- systemic C5a levels, NT animals relative to PIC1-treated animals [1]: significantly higher
- Barnes maze: latency in finding the escape hole ([2]; 8 weeks after injury, versus NT and HT animals): significantly shorter
- Barnes maze: seeking strategy ([2]; direct versus random or serial strategy): more likely to use a direct strategy
- Barnes maze: errors in finding the escape hole ([2]; versus HT-treated animals): significantly fewer
- Barnes maze: errors in finding the escape hole ([2]; versus NT animals, P=0.06, not statistically significant): trended towards fewer errors
- inhibition of systemic complement activation ([3]; 30 minutes after i.p. injection, 160 mg/kg, plasma): 70%
- return of complement activity to baseline, time after injection ([3]; gradual return after i.p. injection, 160 mg/kg): ≤ 8 h
- systemic complement inhibition at 0.5, 1, 2 and 4 hours after injection ([3]; versus untreated NT animals, P<0.05): significant systemic complement inhibition
- complement activity at 8, 16 and 48 hours after injection ([3]; versus untreated controls): comparable to that of untreated controls
- C1q levels in plasma, NT animals relative to PIC1-treated animals [4]: significantly higher
